Reference: patent US20230114728A1 (Venatorx Pharmaceuticals, Inc., priority 2019, published 2023)
In brackets after ≈: the same amount, converted by molar mass.

Experiments:
[1] = molecular target: T1, E. coli K12 PBP3 (Escherichia coli, UniProt P0AD68); experiment: biochemical; type: binding
T1 construct: made in house
In short: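 A. baumannii PBP2 (2.5 μM) and PBP3 (0.2 μM) were run in 25 mM Tris pH 8.0 buffer with Tween 20; E. coli PBP3 (1.5 μM) and N. gonorrhoeae PBP2 ([…]) in 50 mM Hepes pH 8.0 buffer.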

[2] = tested on: A. baumannii ATCC 19606; experiment: Broth microdilution MIC in CAMHB; type: cell-based; settings: Acinetobacter baumannii, ATCC19606; MHB; read-out: Minimum Inhibitory Concentration, A. baumannii ATCC 19606
In short: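 Per CLSI broth microdilution, colonies were grown 3-5 h at 37° C in cation-adjusted Mueller Hinton broth, then diluted to a starting inoculum of 2-8×10^5 CFU/mL against 2-fold serial compound dilutions. Plates were incubated 16-20 h at 37° C, and MIC was read visually as the lowest concentration with no growth.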

[3] = tested on: E. coli 901C; experiment: Broth microdilution MIC in CAMHB; type: cell-based; settings: Escherichia coli; E. coli 901C (hyper-permeable); MHB; read-out: Minimum Inhibitory Concentration, E. coli 901C
In short: (§1)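 CLSI microdilution; CAMHB; inoculum 2-8×10^5 CFU/mL from 3-5 h 37° C culture; 2-fold compound series; 16-20 h, 37° C; MIC = lowest well without visible growth.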

[4] = tested on: E. coli AG100A; experiment: Broth microdilution MIC in CAMHB; type: cell-based; settings: Escherichia coli, read-out: Minimum Inhibitory Concentration, E. coli AG100A
In short: as §1

[5] = tested on: E. coli AG100; experiment: Broth microdilution MIC in CAMHB; type: cell-based; settings: Escherichia coli; E. coli AG100 (wild-type parent); MHB; read-out: Minimum Inhibitory Concentration, E. coli AG100
In short: as §1

[6] = tested on: E. coli ATCC 25922; experiment: Broth microdilution MIC in CAMHB; type: cell-based; settings: Escherichia coli, ATCC25922; E. coli ATCC 25922; MHB; read-out: Minimum Inhibitory Concentration, E. coli 25922
In short: as §1

[7] = tested on: E. coli D22; experiment: Broth microdilution MIC in CAMHB; type: cell-based; settings: Escherichia coli; E. coli D22 (hyper-permeable); MHB; read-out: Minimum Inhibitory Concentration, E. coli D22
In short: as §1

[8] = tested on: K. pneumoniae 848844 producing SHV-11 and KPC-2; experiment: Broth microdilution MIC in CAMHB; type: cell-based; settings: Klebsiella pneumoniae, read-out: Minimum Inhibitory Concentration, K. pneumoniae 848844
In short: as §1

[9] = tested on: K. pneumoniae SI-117 producing VIM-1; experiment: Broth microdilution MIC in CAMHB; type: cell-based; settings: Klebsiella pneumoniae, read-out: Minimum Inhibitory Concentration, K. pneumoniae SI-117
In short: as §1

[10] = tested on: K. pneumoniae UMM producing SHV-5 and KPC-2; experiment: Broth microdilution MIC in CAMHB; type: cell-based; settings: Klebsiella pneumoniae, read-out: Minimum Inhibitory Concentration, K. pneumoniae UMM
In short: as §1

[11] = tested on: P. aeruginosa (ΔmexAB-oprM); experiment: Broth microdilution MIC in CAMHB; type: cell-based; settings: Pseudomonas aeruginosa, read-out: Minimum Inhibitory Concentration, P. aeruginosa ΔmexAB-OprM
In short: as §1

[12] = tested on: P. aeruginosa ATCC 35151; experiment: Broth microdilution MIC in CAMHB; type: cell-based; settings: Pseudomonas aeruginosa, ATCC35151; MHB; hyper-permeable strain; read-out: Minimum Inhibitory Concentration, P. aeruginosa ATCC 35151
In short: as §1

[13] = tested on: P. aeruginosa PAO1; experiment: Broth microdilution MIC in CAMHB; type: cell-based; settings: Pseudomonas aeruginosa, MHB, read-out: Minimum Inhibitory Concentration, P. aeruginosa PAO1
Procedure: To determine the ability of test compounds to inhibit the growth of bacterial strains, classic cell based broth microdilution minimum inhibitory concentration (MIC) assays were employed. MIC assays are performed according to CLSI methods except where otherwise noted (CLSI, 2018 and CLSI, 2019). The reference type strain E. coli ATCC 25922; the wild-type parent strain E. coli AG100; the hyper-permeable E. coli 901C and E. coli D22; and the E. coli AG100A strain lacking the acrAB efflux pump encoding genes were used to determine the ability of the PBP inhibitors to penetrate the outer membrane of gram-negative bacteria and inhibit bacterial growth. […] The P. aeruginosa ATCC 27853 and A. baumannii ATCC 19606, along with the hyper-permeable P. aeruginosa ATCC 35151 and an engineered efflux pump-compromised strain of P. aeruginosa (ΔmexAB-oprM) were used to determine the ability of PBP inhibitors to penetrate the outer membrane of P. aeruginosa and A. baumannii and assess antibacterial activity against these important gram-negative organisms.
Briefly, cryo-preserved bacterial cultures of challenge strains are streaked for isolation on appropriate agar medium, in this case cation-adjusted Mueller Hinton agar. Following incubation to allow growth of the colonies, plates are sealed with parafilm and stored refrigerated for up to two weeks. For preparation of assay inoculum and to ensure low variability, at least 5 colonies are picked from the agar plates with an inoculating loop and aseptically transferred to a culture tube containing 3 mL of cation-adjusted Mueller Hinton broth (CAMHB). The broth culture is grown for 3-5 hours at 37° C. with shaking at 200 rpm. Meanwhile, 2-fold serial dilutions of test compounds are conducted in a 96-well plate with a final volume of 75 μL per well at 2-fold the final desired concentration. After the dilution plates are set up the growing cultures are then diluted in a cuvette containing CAMHB and the optical density is measured at 600 nm. The inoculum is diluted such that 75 μL of this culture in CAMHB results in a starting bacterial concentration of 2-8×10^5 CFU/mL when added to the dilution plates. The plates are incubated for 16-20 hours for Enterobacteriaceae and Pseudomonas and 20-24 hours for Acinetobacter at 37° C. The MIC values are read visually as the lowest concentration well with no bacterial growth.

[14] = molecular target: T2, P. aeruginosa PBP3 (Pseudomonas aeruginosa, UniProt G3XD46); experiment: Bocillin-FL fluorescence polarization competition binding assay, P. aeruginosa PBP3; settings: fluorescence polarization competition binding assay using Bocillin-FL
T2 construct: made in house
T2 sequence (G3XD46 whole entry): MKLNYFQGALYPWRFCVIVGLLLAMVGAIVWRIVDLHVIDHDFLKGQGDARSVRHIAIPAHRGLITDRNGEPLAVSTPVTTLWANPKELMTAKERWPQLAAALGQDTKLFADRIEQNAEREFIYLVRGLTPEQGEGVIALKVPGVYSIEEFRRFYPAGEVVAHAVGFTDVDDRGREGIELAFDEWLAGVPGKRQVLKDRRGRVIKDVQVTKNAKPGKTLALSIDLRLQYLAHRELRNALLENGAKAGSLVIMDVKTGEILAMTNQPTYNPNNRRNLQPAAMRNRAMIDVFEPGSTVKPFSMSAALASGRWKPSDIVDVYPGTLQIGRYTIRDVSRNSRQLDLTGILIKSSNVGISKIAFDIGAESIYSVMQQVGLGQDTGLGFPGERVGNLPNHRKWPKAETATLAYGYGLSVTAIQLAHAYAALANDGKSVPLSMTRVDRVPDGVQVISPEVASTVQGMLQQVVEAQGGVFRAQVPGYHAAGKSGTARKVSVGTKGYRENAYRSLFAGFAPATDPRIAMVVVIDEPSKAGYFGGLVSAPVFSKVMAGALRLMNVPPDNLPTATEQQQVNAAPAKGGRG
In short: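 Inhibitor competition with Bocillin-FL for P. aeruginosa PBP3 was followed by fluorescence polarization on a Cytation3 (BioTek) reader, using g-factor 0.96, 490 nm excitation and 520 nm emission. The enzyme was at 0.75 μM and the probe at 0.1 μM in Hepes/NaCl/glycerol buffer, 80 μl per well. FP was recorded immediately after probe addition for up to 60 minutes. Potency was expressed as EC50, the concentration that reduces bound probe by 50%.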

T1 sequence (P0AD68 1-577): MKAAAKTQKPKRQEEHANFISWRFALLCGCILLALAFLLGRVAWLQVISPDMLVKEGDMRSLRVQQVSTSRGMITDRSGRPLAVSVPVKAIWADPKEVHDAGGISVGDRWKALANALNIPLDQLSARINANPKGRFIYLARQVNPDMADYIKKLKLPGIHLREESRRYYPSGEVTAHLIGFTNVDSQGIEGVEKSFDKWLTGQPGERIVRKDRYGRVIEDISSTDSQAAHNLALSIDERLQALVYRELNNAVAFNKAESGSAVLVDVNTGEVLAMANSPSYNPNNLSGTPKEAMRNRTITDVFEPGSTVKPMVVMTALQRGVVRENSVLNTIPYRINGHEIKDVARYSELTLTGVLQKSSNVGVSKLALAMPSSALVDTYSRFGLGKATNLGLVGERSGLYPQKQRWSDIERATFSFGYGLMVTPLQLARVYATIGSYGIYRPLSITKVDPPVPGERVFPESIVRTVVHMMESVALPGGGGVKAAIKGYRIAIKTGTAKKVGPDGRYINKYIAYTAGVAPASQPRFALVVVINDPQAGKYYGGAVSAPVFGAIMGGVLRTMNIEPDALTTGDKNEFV

SMILES | EC50 [1] | MIC [2] | MIC [3] | MIC [4] | MIC [5] | MIC [6] | MIC [7] | MIC [8] | MIC [9] | MIC [10] | MIC [11] | MIC [12] | MIC [13] | P. aeruginosa PBP3 Potency [14]
CCN1CCN(C(=O)NC(C(=O)N[C@H]2Cc3ccc(SC)c(C(=O)O)c3OB2O)c2csc(N)n2)C(=O)C1=O (stereo partly drawn) [Example 56, (3R)-3-(2-(2-aminothiazol-4-yl)-2-(4-ethyl-2,3-dioxopiperazine-1-carboxamido)acetamido)-2-hydroxy-7-(methylthio)-3,4-dihydro-2H-benzo[e][1,2]oxaborinine-8-carboxylic acid] | 30 to 500 µM | > 128 µg/mL | 0.5 to 1 µg/mL (≈ 0.867 to 1.73 µM) | 8 to 16 µg/mL (≈ 13.9 to 27.8 µM) | 32 to 64 µg/mL (≈ 55.5 to 111 µM) | 32 to 64 µg/mL (≈ 55.5 to 111 µM) | 8 to 16 µg/mL (≈ 13.9 to 27.8 µM) | 32 to 64 µg/mL (≈ 55.5 to 111 µM) | 32 to 64 µg/mL (≈ 55.5 to 111 µM) | 8 to 16 µg/mL (≈ 13.9 to 27.8 µM) | 32 to 64 µg/mL (≈ 55.5 to 111 µM) | 0.5 to 1 µg/mL (≈ 0.867 to 1.73 µM) | > 128 µg/mL | 
CCN1CCN(C(=O)NC(C(=O)N[C@H]2Cc3ccc(O)c(C(=O)O)c3OB2O)c2ccccc2)C(=O)C1=O (stereo partly drawn) [Example 61, (3R)-3-(2-(4-ethyl-2,3-dioxopiperazine-1-carboxamido)-2-phenylacetamido)-2,7-dihydroxy-3,4-dihydro-2H-benzo[e][1,2]oxaborinine-8-carboxylic acid] |  | > 128 µg/mL | 0.5 to 1 µg/mL (≈ 0.954 to 1.91 µM) | 32 to 64 µg/mL (≈ 61 to 122 µM) | 32 to 64 µg/mL (≈ 61 to 122 µM) | 32 to 64 µg/mL (≈ 61 to 122 µM) | 8 to 16 µg/mL (≈ 15.3 to 30.5 µM) | > 128 µg/mL | > 128 µg/mL | > 128 µg/mL | > 128 µg/mL | 8 to 16 µg/mL (≈ 15.3 to 30.5 µM) | > 128 µg/mL | B (B represents a potency between 30 μM and 500 μM inclusive)
CCN1CCN(C(=O)NC(C(=O)N[C@H]2Cc3ccc(C=NOCCN)c(C(=O)O)c3OB2O)c2csc(N)n2)C(=O)C1=O (stereo partly drawn) [Example 62, (3R)-7-(((2-aminoethoxy)imino)methyl)-3-(2-(2-aminothiazol-4-yl)-2-(4-ethyl-2,3-dioxopiperazine-1-carboxamido)acetamido)-2-hydroxy-3,4-dihydro-2H-benzo[e][1,2]oxaborinine-8-carboxylic acid] | > 500 µM | > 128 µg/mL | 32 to 64 µg/mL (≈ 51.9 to 104 µM) | 32 to 64 µg/mL (≈ 51.9 to 104 µM) | > 128 µg/mL | > 128 µg/mL | 32 to 64 µg/mL (≈ 51.9 to 104 µM) | > 128 µg/mL | > 128 µg/mL | > 128 µg/mL | > 128 µg/mL | 8 to 16 µg/mL (≈ 13 to 26 µM) | > 128 µg/mL | B (B represents a potency between 30 μM and 500 μM inclusive)
CCN1CCN(C(=O)NC(C(=O)N[C@H]2Cc3ccc(SCC[N+]4(C)CCCC4)c(C(=O)O)c3OB2O)c2csc(N)n2)C(=O)C1=O.O=C([O-])C(F)(F)F (stereo partly drawn) [Example 65, 1-(2-(((3R)-3-(2-(2-aminothiazol-4-yl)-2-(4-ethyl-2,3-dioxopiperazine-1-carboxamido)acetamido)-8-carboxy-2-hydroxy-3,4-dihydro-2H-benzo[e][1,2]oxaborinin-7-yl)thio)ethyl)-1-methylpyrrolidin-1-ium 2,2,2-trifluoroacetate] | > 500 µM | > 128 µg/mL | 32 to 64 µg/mL | 32 to 64 µg/mL | > 128 µg/mL | > 128 µg/mL | > 128 µg/mL | > 128 µg/mL | > 128 µg/mL | > 128 µg/mL | > 128 µg/mL | 8 to 16 µg/mL | > 128 µg/mL | 
CCN1CCN(C(=O)NC(C(=O)N[C@H]2Cc3ccc(SCCNCCN)c(C(=O)O)c3OB2O)c2csc(N)n2)C(=O)C1=O (stereo partly drawn) [Example 66, (3R)-7-((2-((2-aminoethyl)amino)ethyl)thio)-3-(2-(2-aminothiazol-4-yl)-2-(4-ethyl-2,3-dioxopiperazine-1-carboxamido)acetamido)-2-hydroxy-3,4-dihydro-2H-benzo[e][1,2]oxaborinine-8-carboxylic acid] | > 500 µM | > 128 µg/mL | 32 to 64 µg/mL (≈ 49.3 to 98.7 µM) | 32 to 64 µg/mL (≈ 49.3 to 98.7 µM) | > 128 µg/mL | > 128 µg/mL | 32 to 64 µg/mL (≈ 49.3 to 98.7 µM) | > 128 µg/mL | > 128 µg/mL | > 128 µg/mL | > 128 µg/mL | 8 to 16 µg/mL (≈ 12.3 to 24.7 µM) | > 128 µg/mL | 
CCN1CCN(C(=O)NC(C(=O)N[C@H]2Cc3ccc(SCCN)c(C(=O)O)c3OB2O)c2csc(N)n2)C(=O)C1=O (stereo partly drawn) [Example 67, (3R)-7-((2-aminoethyl)thio)-3-(2-(2-aminothiazol-4-yl)-2-(4-ethyl-2,3-dioxopiperazine-1-carboxamido)acetamido)-2-hydroxy-3,4-dihydro-2H-benzo[e][1,2]oxaborinine-8-carboxylic acid] | 30 to 500 µM | > 128 µg/mL | 0.5 to 1 µg/mL (≈ 0.826 to 1.65 µM) | 32 to 64 µg/mL (≈ 52.9 to 106 µM) | > 128 µg/mL | 32 to 64 µg/mL (≈ 52.9 to 106 µM) | 8 to 16 µg/mL (≈ 13.2 to 26.4 µM) | > 128 µg/mL | 32 to 64 µg/mL (≈ 52.9 to 106 µM) | 32 to 64 µg/mL (≈ 52.9 to 106 µM) | 32 to 64 µg/mL (≈ 52.9 to 106 µM) | 0.5 to 1 µg/mL (≈ 0.826 to 1.65 µM) | > 128 µg/mL | 
